Columns and labels:
MIAPaCa-2 = MIAPaCa-2 pancreatic cancer xenograft; type: in vivo, Balb/c nude mice; conditions: MIAPaCa-2 model
Protocol: For xenograft studies, five week old male Balb/c nude mice were maintained on an isoflavone-free diet to remove background isoflavone levels contributed by standard feed. On the day of inoculation a suspension of MIAPaCa2 or HPAC cells was prepared in DMEM (-FBS), chilled on ice and then an equal volume of matrigel (BD) was added. Mice were inoculated subcutaneously with 3×10^6 MIAPaCa2 or HPAC cells bilaterally (midway between the axillary and inguinal region) along the dorsal surface, ensuring that cells to be injected were growing at mid-end log phase. Tumor growth was monitored over 10-15 days. Compound 10 was given orally by gavage in 1% carboxy methyl cellulose (CMC) as a vehicle. Gemcitabine was injected intraperiponeally in PBS. In combination groups animals were first dosed with Compound 10 and then dosed with gemcitabine using the respective administration schedule, dosage and route of delivery stated.

pancreatic cancer cells = test: Simultaneous caspase activation, apoptosis and necrosis (Annexin-V-Cy5/sytox blue) by flow cytometry; type: cell-based, human; conditions: Compound 10-treated, 10 μM, 48 hrs
Protocol: Cells. Human pancreatic cell lines HPAC, MIAPaCa-2 and PANC-1 were obtained from the ATCC. (Manassas, Va.). The cells were maintained in DMEM media with Gln and high glucose (Mediatech, Manassas, Va.) with 10% fetal bovine serum (FBS, HyClone, Logan, Utah) and pencillin/streptomycin.
Caspase Activity After 48 h treatment with 10 μM Compound 10, HPAC, MIAPaCa-2 and PANC-1 cells were harvested by trypsinization and resuspended in DMEM media with 10% FBS. The cells were incubated with caspase substrates for 1 h at 37° C., 5% CO2, then probed with Annexin-V-Cy5 and sytox blue. Caspase +ve cells were gated as shown in the histograms and these cells are indicated on the Annexin-V-Cy5/sytox blue spectra as blue cells. In situ caspase activity was assayed using fluorescent substrates. For Caspase 2, FITC-VDVAD-fmk (Biovision K182-100), for Caspase 3, FITC-DEVD-fmk (K183-100) and for Caspase 9, FITC-LEHD-fmk (K199-100) was used. These substrates bind irreversibly to their respective activated caspases, and caspase activation was quantitated by flow cytometry. After 1 hr incubation at 37° C. in 5% CO2, the cells were washed with DPBS containing 5% FBS and resuspended in Annexin-V binding buffer containing Annexin-V-Cy5 (Biovision K103-3) and sytox blue (Invitrogen), a dye that binds necrotic cells. Caspase activation, apoptosis and necrosis were measured simultaneously using a violet, blue and red laser in a BD LSRII flow cytometer.

[1] = test system: phosphorylated mTOR (p-mTOR); test: Western blot of EOC whole cell lysates for phospho-mTOR; type: cell-based, human; conditions: EOC cells, 10 g/ml (as printed, FIG. 3 legend), 15 mins post-treatment
Excerpt: (§1) Protein preparation and cellular fractionation. After drug treatment, protein was extracted and measured as previously described (Alvero et al, 2006). For separation of the cytoplasmic and mitochondrial fractions, cell pellets were processed using the ApoAlert™ Cell Fractionation Kit (BD Biosciences, San Jose, Calif.) according to the manufacturer's instructions. For separation of the cytoplasmic and nuclear fractions, pellets were processed using NE-PER Nuclear and Cytoplasmic Extraction (Pierce Biotechnology, Inc., Rockford, Ill.).
(§2) SDS-PAGE and Western blots. Cell lysates (20 μg protein) were denatured in sample buffer (2.5% SDS, 10% glycerol, 5% β-mercapto-ethanol, 0.15 M Tris (pH=6.8) and 0.01% bromophenol blue) and subjected to 12% SDS-PAGE as previously described (Kamsteeg et al, 2003). […]

LC3-II = test: Western blot of EOC whole cell lysates for LC3-II; type: cell-based, human; conditions: EOC cells, 10 g/ml (as printed, FIG. 3 legend)
Excerpt: as §1, §2

8 phospho-proteins = test: Analysis of phospho-proteins using xMAP technology (Beadlyte 8-plex); type: cell-based, human; conditions: EOC cells, 10 μg/ml
Excerpt: Analysis of phoshpo-proteins using xMAP technology. After treatment, cells were lysed and lysates were used to measure the phosphorylation status of 8 proteins using the Beadlyte® 8-plex Multi-Pathway Signaling kit (Millipore, Billerica, Mass.) according to manufacturer's instructions. Data was acquired using the BioPlex System (BioRad, Hercules, Calif.).

XIAP = test: Western blot of EOC whole cell lysates for XIAP; type: cell-based, human; conditions: EOC cells, 10 g/ml (as printed, FIG. 2 legend)
Excerpt: as §1, §2

AIF and EndoG = test: Western blot of nuclear fractions for AIF and EndoG; type: cell-based, human; conditions: EOC cells, 10 μg/ml
Excerpt: as §1, §2

SMILES	% T/C (mean terminal tumor burden) (MIAPaCa-2; Compound 10 100 mg/kg oral qd×12, gemcitabine 20 mg/kg q3d×4, alone or combined)	rate of tumor proliferation (MIAPaCa-2; oral 100 mg/kg, qd×12, vs vehicle control, level similar to gemcitabine)	caspase positive cells that bound both Annexin-V-Cy5 and sytox blue (later stages of apoptosis) (pancreatic cancer cells)	caspase positive cells that were Annexin-V positive and sytox blue negative (early stages of apoptosis) (pancreatic cancer cells)	caspase positive cells that were sytox blue positive and Annexin-V negative (necrosis) (pancreatic cancer cells)	p-mTOR level [1]	levels of LC3-II (LC3-II)	ERK, pJNK, pSTAT5a/b, and pCREB (xMAP phospho-protein panel) (8 phospho-proteins)	p-S6k (xMAP phospho-protein panel) (8 phospho-proteins)	pIκB, pSTAT3, and p38 (xMAP phospho-protein panel) (8 phospho-proteins)	status of XIAP (XIAP)	level of nuclear AIF (AIF and EndoG)	level of nuclear EndoG (AIF and EndoG)
COc1ccc(C2c3ccc(O)cc3OCC2c2ccc(O)cc2)cc1 (stereo not shown) [Compound 10, 3-(4-hydroxyphenyl)-4-(4-methoxyphenyl)chroman-7-ol]	94%	retarded	Approximately 30%	Approximately 60%	Less than 5%								
COc1ccc(C2c3ccc(O)c(C)c3OCC2c2ccc(O)cc2)cc1 (stereo not shown) [Compound 1, 3-(4-hydroxyphenyl)-4-(4-methoxyphenyl)-8-methylchroman-7-ol]						down-regulated	significant increase	Up-regulation	down-regulates	minimal or no effect	no change	not	increase

From patent publication US20100130598A1, “METHODS FOR INDUCING PROGRAMMED CELL DEATH” (Novogen Research Pty Ltd., priority 2008, published 2010)
